In test [1] the target is T1, human recombinant adrenergic α2A receptor (Homo sapiens, UniProt P08913).
T1 construct: expressed in transfected cells; host or cells: insect Sf9 cells
T1 sequence (P08913 1-465): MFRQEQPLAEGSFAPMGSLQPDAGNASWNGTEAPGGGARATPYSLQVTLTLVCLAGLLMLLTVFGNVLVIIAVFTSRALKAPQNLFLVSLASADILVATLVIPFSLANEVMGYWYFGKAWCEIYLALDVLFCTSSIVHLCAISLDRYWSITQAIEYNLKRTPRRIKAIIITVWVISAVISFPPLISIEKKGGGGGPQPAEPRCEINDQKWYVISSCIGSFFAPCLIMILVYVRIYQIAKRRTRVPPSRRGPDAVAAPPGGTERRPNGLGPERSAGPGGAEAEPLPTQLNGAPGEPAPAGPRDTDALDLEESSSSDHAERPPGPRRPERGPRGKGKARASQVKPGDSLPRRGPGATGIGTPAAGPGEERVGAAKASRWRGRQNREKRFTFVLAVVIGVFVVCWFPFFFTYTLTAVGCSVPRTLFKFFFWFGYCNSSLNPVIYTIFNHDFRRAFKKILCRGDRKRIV
Briefly: Radioligand binding, adrenergic α2A ([3H]MK-912). The gist of the method: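 Sf9-expressed receptor was incubated with compound for 60 min at 25 °C in modified Tris-HCl buffer, pH 7.4. Nonspecific binding was taken as that remaining with 10 μM WB-4101.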

The target of test [2] is T2, human recombinant adrenergic α1D receptor (Homo sapiens, UniProt P25100).
T2 construct: expressed in transfected cells; host or cells: HEK-293
T2 sequence (P25100 1-572): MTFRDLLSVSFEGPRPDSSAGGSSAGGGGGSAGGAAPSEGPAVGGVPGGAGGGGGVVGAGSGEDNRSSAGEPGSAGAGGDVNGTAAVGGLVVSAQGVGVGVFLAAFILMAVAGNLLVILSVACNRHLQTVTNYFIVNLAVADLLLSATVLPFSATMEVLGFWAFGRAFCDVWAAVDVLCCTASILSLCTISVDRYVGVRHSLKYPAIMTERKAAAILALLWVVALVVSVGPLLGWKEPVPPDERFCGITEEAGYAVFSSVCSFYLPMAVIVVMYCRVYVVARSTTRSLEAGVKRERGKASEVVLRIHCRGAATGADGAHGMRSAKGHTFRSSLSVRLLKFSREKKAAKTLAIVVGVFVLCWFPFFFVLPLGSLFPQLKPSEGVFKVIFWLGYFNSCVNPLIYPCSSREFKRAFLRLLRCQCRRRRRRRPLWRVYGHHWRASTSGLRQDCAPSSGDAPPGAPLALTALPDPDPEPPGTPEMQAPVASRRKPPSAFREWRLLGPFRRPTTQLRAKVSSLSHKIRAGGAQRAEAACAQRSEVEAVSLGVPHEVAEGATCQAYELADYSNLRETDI
Briefly: Radioligand binding, adrenergic α1D ([3H]Prazosin). To be noted: for Percentage inhibition of ligand binding, Adrenergic α1D: 0.1 µM. Here is the method: Compounds were incubated with 0.6 nM [3H]Prazosin for 60 min at 25° C. Non-specific binding was estimated in the presence of 10 μM phentolamine. Receptor proteins were filtered and washed, the filters were then counted to determine [3H]Prazosin specifically bound. […] Biochemical assay results are presented as the percent inhibition of specific binding in Table B1.

The target of test [3] is T3, human recombinant adrenergic α2B receptor (Homo sapiens, UniProt P18089).
T3 construct: expressed in transfected cells; host or cells: CHO-K1
T3 sequence (P18089 1-450): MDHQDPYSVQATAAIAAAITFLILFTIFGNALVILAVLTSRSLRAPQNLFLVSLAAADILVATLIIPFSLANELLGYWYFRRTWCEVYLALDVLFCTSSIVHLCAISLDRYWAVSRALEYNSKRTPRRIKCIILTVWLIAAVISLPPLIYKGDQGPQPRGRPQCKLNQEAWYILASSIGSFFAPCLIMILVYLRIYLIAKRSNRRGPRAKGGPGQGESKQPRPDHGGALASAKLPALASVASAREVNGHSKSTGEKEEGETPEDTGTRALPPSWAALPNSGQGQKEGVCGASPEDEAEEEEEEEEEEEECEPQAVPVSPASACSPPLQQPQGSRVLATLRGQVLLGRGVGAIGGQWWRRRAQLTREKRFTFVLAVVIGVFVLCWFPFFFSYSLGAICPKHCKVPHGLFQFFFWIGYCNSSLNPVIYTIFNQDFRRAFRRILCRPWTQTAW
Briefly: Radioligand binding, adrenergic α2B ([3H]Rauwolscine). The gist of the method:
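Membranes from CHO-K1 cells expressing human recombinant α2B, in 50 mM Tris-HCl pH 7.4, 12.5 mM MgCl2, 1 mM EDTA, 0.2% BSA, incubated with compound and 2.5 nM [3H]Rauwolscine, 60 min, 25 °C.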

In test [4] the target is T4, rat adrenergic α1B receptor (Rattus norvegicus, UniProt P15823).
T4 construct: rat adrenergic α1B receptor obtained from Wistar Rat liver; from tissue; host or cells: Wistar rat liver
T4 sequence (P15823 1-515): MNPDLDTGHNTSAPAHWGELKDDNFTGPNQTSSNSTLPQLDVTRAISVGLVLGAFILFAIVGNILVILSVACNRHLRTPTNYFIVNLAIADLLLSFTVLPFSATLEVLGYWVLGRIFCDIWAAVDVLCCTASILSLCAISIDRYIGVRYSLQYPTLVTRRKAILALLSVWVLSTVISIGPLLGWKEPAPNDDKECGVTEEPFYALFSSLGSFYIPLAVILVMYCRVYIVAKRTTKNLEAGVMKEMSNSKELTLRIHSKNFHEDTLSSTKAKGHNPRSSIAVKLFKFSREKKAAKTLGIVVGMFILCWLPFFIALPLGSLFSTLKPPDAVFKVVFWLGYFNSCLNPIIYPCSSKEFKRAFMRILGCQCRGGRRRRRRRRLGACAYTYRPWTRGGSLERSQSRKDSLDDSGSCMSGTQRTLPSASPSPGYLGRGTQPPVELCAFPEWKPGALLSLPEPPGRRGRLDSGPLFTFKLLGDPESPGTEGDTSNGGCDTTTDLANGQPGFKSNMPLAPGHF
Briefly: Radioligand binding, adrenergic α1B ([3H]Prazosin). In short, it runs like this:
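Incubation ran 60 min at 25 °C in Tris-HCl buffer (50 mM, pH 7.4, 0.5 mM EDTA) with Wistar rat liver α1B receptor. 10 μM phentolamine set non-specific binding.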

Where [5] appears, read: read-out: Percentage inhibition of ligand binding, Adrenergic α2A (0.1 μM), compound at 0.1 μM, [3H]MK-912, repeat datapoints each shown.
[6] abbreviates: read-out: Percentage inhibition of ligand binding, Adrenergic α1D (0.1 μM), compound at 0.1 μM, [3H]Prazosin, repeat datapoints each shown.
Where [7] appears, read: read-out: Percentage inhibition of ligand binding, Adrenergic α2B (0.1 μM), compound at 0.1 μM, [3H]Rauwolscine, repeat datapoints each shown.
Where [8] appears, read: read-out: Percentage inhibition of ligand binding, Adrenergic α1B (0.1 μM), compound at 0.1 μM, [3H]Prazosin, repeat datapoints each shown.
The mark [9] stands for this setting: 0.1 μM compound, read-out: Percentage inhibition of ligand binding, Adrenergic α2A.
Where [10] appears, read: 0.1 μM compound, read-out: Percentage inhibition of ligand binding, Adrenergic α1D.
[11] abbreviates: 0.1 μM compound, read-out: Percentage inhibition of ligand binding, Adrenergic α2B.
The mark [12] stands for this setting: 0.1 μM compound, read-out: Percentage inhibition of ligand binding, Adrenergic α1B.
Where [13] appears, read: compound at 0.1 μM, [3H]Prazosin, repeat assays, each datapoint shown, read-out: Percentage inhibition of ligand binding, Adrenergic α1D.
The mark [14] stands for this setting: compound at 0.1 μM, [3H]Rauwolscine, repeat assays, each datapoint shown, read-out: Percentage inhibition of ligand binding, Adrenergic α2B.
[15] abbreviates: compound at 0.1 μM, [3H]Prazosin, repeat assays, each datapoint shown, 0.1 µM.

As usually defined, the inhibition is the change of the read-out against control, counted positive when it falls. By Ki is commonly meant a measure of affinity in units of concentration, obtained from inhibition or displacement.

Where “and” joins values, the source holds several entries; their conditions need not be identical. Equal entries are not always repeated. Where two headings read alike, the source gives them in different places.

With `Cc1ccc2c(c1)c1c(n2/C=C(\F)c2ccncc2)CCN(C)C1` [compound 105], the inhibition at 0.1 µM in test [1] (setting [5]) worked out at 14%; in test [2] (setting [6]) it was 36%; in test [3] (setting [7]) it was 68%; in test [4] (setting [8]) it was 57%.
`Cc1csc(C2=C(n3c4c(c5cc(C)ccc53)CN(C)CC4)CCC2)c1` [compound 304, 2,8-dimethyl-5-(2-(4-methylthiophen-2-yl)cyclopent-1-enyl)-2,3,4,5-tetrahydro-1H-pyrido[4,3-b]indole]: the inhibition at 0.1 µM was determined as 79% in test [1] (setting [9]), 27% in test [2] (setting [10]), 81% in test [3] (setting [11]) and 15% in test [4] (setting [12]).
For `C/C(=C/n1c2c(c3cc(C)ccc31)CN(C)CC2)c1ccc(F)nc1` [compound 276] the same measures were 71%, 81%, 101% and 86%.
With `Cc1ccc2c(c1)c1c(n2CC(C)c2ccc(C)nc2)CCN(C)C1` (single isomer, unassigned) [289a], the inhibition at 0.1 µM in test [1] (setting [9]) turned out to be 60%. Further, in test [2] (0.1 μM compound), the “Percentage inhibition of ligand binding, Adrenergic α1D” value (shortened to “Percentage inhibition … Adrenergic α1D”) is given as 57%. Moreover, in test [4] (0.1 μM compound, 0.1 µM), the “Percentage inhibition of ligand binding, Adrenergic α1B” value (from here on “Percentage inhibition … Adrenergic α1B”) is recorded as 51%.
For `Cc1ccc2c(c1)c1c(n2CC(C)(O)c2ccc(F)cc2)CCN(C)C1` (stereo not shown) [compound 90], the “Percentage inhibition of ligand binding, Adrenergic α2A” value (“Percentage inhibition … Adrenergic α2A” for short) in test [1] (compound at 0.1 μM, [3H]MK-912, repeat assays, each datapoint shown, 0.1 µM) was 22%. Also, the inhibition at 0.1 µM in test [2] (setting [13]) was found to be 20%; in test [3] (setting [14]) it was 91%. For the same compound, in test [4] (setting [15]), the “Percentage inhibition … Adrenergic α1B” value amounted to 57%.
As for `C/C(=C\n1c2c(c3cc(C)ccc31)CN(C)CC2)C1CCCCC1` [compound 261], the inhibition at 0.1 µM in test [1] (setting [9]) was determined as 84%; in test [2] (setting [10]) it was 30%; in test [3] (setting [11]), 84%; in test [4] (setting [12]), 50%.
As for `Cc1ccc(CCn2c3c(c4cccnc42)CN2CCCC2C3)cn1` (stereo not shown) [II-234], the inhibition at 0.1 µM in test [1] (setting [5]) was 7%; in test [2] (setting [6]), -1%; in test [3] (setting [7]), 33%; in test [4] (setting [8]), -8%.
As to `COc1ccc(C#Cn2c3c(c4cc(Cl)ccc42)CCN(C)CC3)cc1F` [compound 242], the inhibition at 0.1 µM in test [1] (setting [9]) was 50%; in test [2] (setting [10]), 37%; in test [3] (setting [11]) it was 98%; in test [4] (setting [12]) it was 53%.
The matching figures for `C/C(=C\n1c2c(c3cc(C)ccc31)CN(C)CC2)c1ccccn1` [compound 259]: 82%, 53%, 98% and 71%.
In the case of `C/C(=C\n1c2c(c3cc(C)cnc31)CN(C)CC2)c1ccncc1` [compound 124], the inhibition at 0.1 µM in test [1] (setting [5]) was -2%; in test [2] (setting [6]), 12%; in test [3] (setting [7]), 63%; in test [4] (setting [8]), 19%.
With `C/C(=C/n1c2c(c3cc(C)ccc31)CCN(C)CC2)c1cccc(F)c1` [compound 249], the inhibition at 0.1 µM was 98% in test [1] (setting [9]), 82% in test [2] (setting [10]), 98% in test [3] (setting [11]) and 95% in test [4] (setting [12]).
On to `C/C(=C\n1c2c(c3cc(C)ccc31)CN(C)CC2)c1c(C)noc1C` [compound 110], for which the inhibition at 0.1 µM turned out to be 27% in test [1] (setting [5]), 35% in test [2] (setting [6]), 62% in test [3] (setting [7]) and 5% in test [4] (setting [8]).
Regarding `Cc1ccc2c(c1)c1c(n2CC(C)c2ccc(F)cc2)CCN(C)C1` (single isomer, unassigned) [288b], the “Percentage inhibition … Adrenergic α2A” value in test [1] (0.1 μM compound) amounted to 67%. Further, the “Percentage inhibition … Adrenergic α1D” value in test [2] (0.1 μM compound) was determined as 17%. Moreover, the “Percentage inhibition … Adrenergic α1B” value in test [4] (0.1 μM compound) was 39%.
Regarding `Cc1ccc2c(c1)c1c(n2CCc2ccccc2)CCN(C)C1` [compound 200], the Ki in test [1] was 1.63 nM and 3.21 nM. Moreover, the inhibition at 0.03 µM in test [1] (read-out: Percentage inhibition of ligand binding, Adrenergic α2A (0.03 μM), compound at 0.03 μM, [3H]MK-912, repeat datapoints each shown) came out at 81%; in test [4] (read-out: Percentage inhibition of ligand binding, Adrenergic α1B (0.03 μM), compound at 0.03 μM, [3H]Prazosin, repeat datapoints each shown) it was 63%. For the same compound, the values for the inhibition at 0.1 µM in test [1] (setting [5]), in test [2] (setting [6]) and in test [4] (setting [8]) were 92%, 69% and 83%, respectively.
Consider `Cc1ccc2c(c1)c1c(n2CC(C)(O)c2ccncc2)CCN(C)C1` (stereo not shown) [compound 2], for which the inhibition at 0.1 µM in test [2] (setting [13]) is 13%; in test [3] (setting [14]), 95%; in test [4] (compound at 0.1 μM, [3H]Prazosin, repeat assays, each datapoint shown, read-out: Percentage inhibition of ligand binding, Adrenergic α1B), 27%. Also, the inhibition at 0.03 µM in test [3] (compound at 0.03 μM, [3H]Rauwolscine, repeat assays, each datapoint shown, read-out: Percentage inhibition of ligand binding, Adrenergic α2B) was determined as 75%. The “Percentage inhibition … Adrenergic α1B” value in test [4] (setting [15]) was found to be 28%.
Take `CC(Cn1c2c(c3ccccc31)CN(C)CC2)c1ccc(F)cc1` (single isomer, unassigned) [272b]: the “Percentage inhibition … Adrenergic α2A” value in test [1] (0.1 μM compound, 0.1 µM) worked out at 68%. The “Percentage inhibition … Adrenergic α1D” value in test [2] (0.1 μM compound) is 36%. Also, the “Percentage inhibition … Adrenergic α1B” value in test [4] (0.1 μM compound, 0.1 µM) turned out to be 30%.

The values above are taken from US8791132B2, “Compounds and methods for treatment of hypertension” (Medivation Technologies, Inc., priority 2011, dated 2014).
